US20080274892A1, “Novel Haloalkylsulfonanilide Derivative, Herbicide, and Method of Use Thereof” (priority 2005, published 2008)

Experiments:
bulrush [1] = experiment: Test Example 1: herbicidal efficacy on rice paddy weeds pre-emergence; type: in vivo, Scirpus juncoides; conditions: 21 days
false pimpernel [2] = experiment: as above; type: in vivo, Lindernia pyxidaria; conditions: 21 days
barnyard glass = experiment: Test Example 2: herbicidal efficacy on rice paddy weeds post-emergence; type: in vivo, Echinochloa crus-galli; conditions: post-emergence, one leaf stage, 21 days after treatment
Method in brief: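 Efficacy on paddy weeds was scored on a 0 to 4 growth-inhibition scale: 4 for 90%-100%, 3 for 70%-89%, 2 for 40%-69%, 1 for 1%-39% and 0 for 0%. Barnyard glass was grown in clay loam in 75 cm^2 pots under 5 cm of water in a hot house. It was compared with untreated pots 21 days after treatment.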

bulrush [3] = experiment: as above; type: in vivo, Scirpus juncoides; conditions: post-emergence, one leaf stage, 21 days after treatment
false pimpernel [4] = experiment: as above; type: in vivo, Lindernia pyxidaria; conditions: post-emergence, one leaf stage, 21 days after treatment
[5] = system: paddy rice plant (cultivar: Nihonbare); experiment: Test Example 3: phytotoxicity test for transplanted paddy rice plant; type: in vivo; conditions: transplanted rice, 21 days after treatment
Method in brief: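 Clay loam soil was placed in a 75 cm^2 plastic pot and flooded to a water depth of 5 cm. Two Nihonbare paddy rice plants at the two-leaf stage were transplanted 1 cm deep and grown in a hot house. After treatment, pots stayed in the hot house for 21 days, and phytotoxicity was then graded against an untreated control.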

bulrush [6] = experiment: Test Example 4: low dosage test for rice paddy weeds; type: in vivo, Scirpus juncoides; conditions: 300 g/ha as an active ingredient; plants treated at the one leaf stage; 21 days after treatment; vs untreated control
Method in brief: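 Compound applied as a formulation at 300 g/ha to one-leaf bulrush grown in flooded clay loam (5 cm water) in a hot house. After 21 days, growth inhibition versus untreated plants rated on a 0–4 scale, with 4 meaning 90–100%.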

[7] = system: transplanted paddy rice plant and Bulrush; experiment: Test Example 5: selectivity between transplanted paddy rice plant and weeds; type: in vivo; conditions: (highest dosage with no phytotoxicity to paddy rice)/(lowest dosage with effective level 4 on Bulrush); rice 3000-100 g/ha, Bulrush 300-10 g/ha; 21 days
Method in brief: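 Scoring ran 21 days after treatment in a hothouse on a 0–4 scale (4 = 90–100%, 3 = 70–89%, 2 = 40–69%, 1 = 1–39%, 0 = none) relative to untreated plants. Post-emergence bulrush received 10, 30, 100 and 300 g/ha active ingredient. Transplanted rice received 100, 300, 1000 and 3000 g/ha to assess crop injury.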

[8] = dosage 1000 g/ha, treated 5 days after transplantation

| SMILES | Bulrush pre (herbicidal efficacy grade) (bulrush [1]; dosage 1000 g/ha) | False pimpernel pre (herbicidal efficacy grade) (false pimpernel [2]; dosage 1000 g/ha) | Burnyard grass post (herbicidal efficacy grade) (barnyard glass; dosage 1000 g/ha) | Bulrush post (herbicidal efficacy grade) (bulrush [3]; dosage 1000 g/ha) | False pimpernel post (herbicidal efficacy grade) (false pimpernel [4]; dosage 1000 g/ha) | Phytotoxicity to paddy rice [5, 8] | Herbicide effect to Bulrush (bulrush [6]) | Selective Index [7] | Bulrush pre (herbicidal efficacy grade) (bulrush [1]; dosage 300 g/ha) | False pimpernel pre (herbicidal efficacy grade) (false pimpernel [2]; dosage 300 g/ha) | Burnyard grass post (herbicidal efficacy grade) (barnyard glass; dosage 300 g/ha) | Bulrush post (herbicidal efficacy grade) (bulrush [3]; dosage 300 g/ha) | False pimpernel post (herbicidal efficacy grade) (false pimpernel [4]; dosage 300 g/ha) | Phytotoxicity to paddy rice ([5]; dosage 300 g/ha) |
| --- | --- | --- | --- | --- | --- | --- | --- | --- | --- | --- | --- | --- | --- | --- |
| CC1(C2CC2)CN(Cc2ccccc2NS(=O)(=O)C(F)(F)F)C(=O)O1 (centres unmarked) [1-71] | 4 (90%-100% of herbicidal efficacy or phytotoxicity) | 4 (90%-100% of herbicidal efficacy or phytotoxicity) | 4 (90%-100% of herbicidal efficacy or phytotoxicity) | 4 (90%-100% of herbicidal efficacy or phytotoxicity) | 4 (90%-100% of herbicidal efficacy or phytotoxicity) | 1 (1%-39% of herbicidal efficacy or phytotoxicity) | 4 (90%-100% of herbicidal efficacy or phytotoxicity) | 10 | – | – | – | – | – | – |
| CCC1(CC)CN(Cc2ccccc2NS(=O)(=O)C(F)(F)F)C(=O)O1 [1-61] | 4 (90%-100% of herbicidal efficacy or phytotoxicity) | 4 (90%-100% of herbicidal efficacy or phytotoxicity) | 4 (90%-100% of herbicidal efficacy or phytotoxicity) | 4 (90%-100% of herbicidal efficacy or phytotoxicity) | 4 (90%-100% of herbicidal efficacy or phytotoxicity) | 1 (1%-39% of herbicidal efficacy or phytotoxicity) | 4 (90%-100% of herbicidal efficacy or phytotoxicity) | 3 | – | – | – | – | – | – |
| CCCOC(=O)N(c1ccccc1CN1CC(C)(CC)OC1=O)S(=O)(=O)C(F)(F)F (centres unmarked) [1-90] | 4 (90%-100% of herbicidal efficacy or phytotoxicity) | 4 (90%-100% of herbicidal efficacy or phytotoxicity) | 4 (90%-100% of herbicidal efficacy or phytotoxicity) | 4 (90%-100% of herbicidal efficacy or phytotoxicity) | 4 (90%-100% of herbicidal efficacy or phytotoxicity) | 3 (70%-89% of herbicidal efficacy or phytotoxicity) | 4 (90%-100% of herbicidal efficacy or phytotoxicity) | 30 | – | – | – | – | – | – |
| COC(=O)N(c1ccccc1CN1C(=O)OC2CCCCC21)S(=O)(=O)C(F)(F)F (centres unmarked) [1-152] | 4 (90%-100% of herbicidal efficacy or phytotoxicity) | 4 (90%-100% of herbicidal efficacy or phytotoxicity) | 4 (90%-100% of herbicidal efficacy or phytotoxicity) | 4 (90%-100% of herbicidal efficacy or phytotoxicity) | 4 (90%-100% of herbicidal efficacy or phytotoxicity) | 1 (1%-39% of herbicidal efficacy or phytotoxicity) | 4 (90%-100% of herbicidal efficacy or phytotoxicity) | 10 | – | – | – | – | – | – |
| CC(C)C1CN(Cc2ccccc2NS(=O)(=O)C(F)(F)F)C(=O)O1 (centres unmarked) [1-31] | 4 (90%-100% of herbicidal efficacy or phytotoxicity) | 4 (90%-100% of herbicidal efficacy or phytotoxicity) | 4 (90%-100% of herbicidal efficacy or phytotoxicity) | 4 (90%-100% of herbicidal efficacy or phytotoxicity) | 4 (90%-100% of herbicidal efficacy or phytotoxicity) | 1 (1%-39% of herbicidal efficacy or phytotoxicity) | 4 (90%-100% of herbicidal efficacy or phytotoxicity) | ≧10 | – | – | – | – | – | – |
| COC(=O)N(c1ccccc1CN1CC(C)(CC(C)C)OC1=O)S(=O)(=O)C(F)(F)F (racemic) [1-124] | 4 (90%-100% of herbicidal efficacy or phytotoxicity) | 4 (90%-100% of herbicidal efficacy or phytotoxicity) | 4 (90%-100% of herbicidal efficacy or phytotoxicity) | 4 (90%-100% of herbicidal efficacy or phytotoxicity) | 4 (90%-100% of herbicidal efficacy or phytotoxicity) | 1 (1%-39% of herbicidal efficacy or phytotoxicity) | 4 (90%-100% of herbicidal efficacy or phytotoxicity) | 10 | – | – | – | – | – | – |
| CCCCOC(=O)N(c1ccccc1CN1C(=O)OC(C)(C)C1OC)S(=O)(=O)C(F)(F)F (centres unmarked) [1-196] | 4 (90%-100% of herbicidal efficacy or phytotoxicity) | 4 (90%-100% of herbicidal efficacy or phytotoxicity) | 4 (90%-100% of herbicidal efficacy or phytotoxicity) | 4 (90%-100% of herbicidal efficacy or phytotoxicity) | 4 (90%-100% of herbicidal efficacy or phytotoxicity) | 1 (1%-39% of herbicidal efficacy or phytotoxicity) | 4 (90%-100% of herbicidal efficacy or phytotoxicity) | 10 | – | – | – | – | – | – |
| COC1N(Cc2ccccc2N(C(=O)OCC(C)C)S(=O)(=O)C(F)(F)F)C(=O)OC1(C)C (centres unmarked) [Compound No. 1-197, 3-{2-[N-(isobutoxycarbonyl)-N-(trifluoromethanesulfonyl)-amino]benzyl}-4-methoxy-5,5-dimethyloxazolidin-2-one] | – | – | – | – | – | – | 4 (90%-100% of herbicidal efficacy or phytotoxicity) | 10 | 4 (90%-100% of herbicidal efficacy or phytotoxicity) | 3 (70%-89% of herbicidal efficacy or phytotoxicity) | 4 (90%-100% of herbicidal efficacy or phytotoxicity) | 4 (90%-100% of herbicidal efficacy or phytotoxicity) | 1 (1%-39% of herbicidal efficacy or phytotoxicity) | 2 (40%-69% of herbicidal efficacy or phytotoxicity) |
| CCOC(=O)N(c1ccccc1CN1CC(C)(C)OC1=O)S(=O)(=O)C(F)(F)F [1-80] | 4 (90%-100% of herbicidal efficacy or phytotoxicity) | 4 (90%-100% of herbicidal efficacy or phytotoxicity) | 4 (90%-100% of herbicidal efficacy or phytotoxicity) | 4 (90%-100% of herbicidal efficacy or phytotoxicity) | 4 (90%-100% of herbicidal efficacy or phytotoxicity) | 2 (40%-69% of herbicidal efficacy or phytotoxicity) | 4 (90%-100% of herbicidal efficacy or phytotoxicity) | 30 | – | – | – | – | – | – |
| CCC1(C(C)C)CN(Cc2ccccc2N(C(=O)OC)S(=O)(=O)C(F)(F)F)C(=O)O1 (centres unmarked) [1-145] | 4 (90%-100% of herbicidal efficacy or phytotoxicity) | 4 (90%-100% of herbicidal efficacy or phytotoxicity) | 4 (90%-100% of herbicidal efficacy or phytotoxicity) | 4 (90%-100% of herbicidal efficacy or phytotoxicity) | 4 (90%-100% of herbicidal efficacy or phytotoxicity) | 2 (40%-69% of herbicidal efficacy or phytotoxicity) | 4 (90%-100% of herbicidal efficacy or phytotoxicity) | 10 | – | – | – | – | – | – |
